Data taken from US20030216471A1, “Retinoid formulations for aerosolization and inhalation” (priority 2003, published 2003).
Where “and” joins values, the source holds several entries; their conditions need not be identical. Identical values can stand only once. Entries after “also recorded” stand apart in the source; their conditions may differ. Like-named read-outs stand apart in the source and are kept apart here.

Experiments:
RAR α = assay: Western blot of rat lung, inhaled 13-cis RA (experiment A), RAR α; assay type: in vivo; conditions: for upregulation of lung tissue RAR (first named, α): daily deposited dose 6.4 mg/kg/day
Description: (§1) The experimental groups were as follows (Table 4):1. Vehicle (10/9 mix of PEG 300 and Ethanol with 0.5% of ascorbic acid and 0.5% phosphatidyl choline) control, day 1: rats (19) inhaled vehicle for 2 hr for one day; 2. […] Vehicle control, day 28: rats (16) inhaled vehicle as for group 1 for a period of 28 days; 5.
(§2) Tissues were collected, frozen in dry ice and kept at −70° C. until used. 500 mg aliquots were diced in small pieces and homogenized in 300 μl of cold PBS, using the hand held homogenizer for 2˜3 minutes. Sample and washes were centrifuged at 5000×g for 20 minutes. The pellet was suspended in 400 μl of ice-cold Buffer A [2 μl 0.5M EDTA, 10 μl 100 mM EGTA, 50 μl 100MM PMSF, 10 μl 1M DTT, 10 ml (10 mM HEPES pH 7.9+10 mM KCl)], and left at ice temperature for 15 minutes. 25 μl of 10% solution of NP-40 was added and samples were mixed in a vortex vigorously for 10 seconds. Samples were centrifuged at 14,000×g for 1 minute at 4° C. and the pellet treated once more in this fashion (resuspended etc.). The supernatant was removed and 100 μl of ice-cold Buffer C [4 μl 0.5M EDTA, 20 μl 100 mM EGTA, 20 μl 100 mM PMSF, 2 μl 1M DTT, 2 ml (20 mM HEPES pH 7.9+0.4M NaCl)] was added. Pellets were resuspended by tapping gently on the bottom of the Eppendorf tubes. Samples were rocked vigorously in a bucket of ice on an orbital shaker for 30 minutes. Samples were centrifuged at 14,000×g for 5 minutes at 4° C.
(§3) Samples were prepared by adding one part of the Sample Buffer to one part of the sample and mixing well. Samples were heated at 95° C. for 5 minutes to induce denaturation. 5 μl of Rainbow Standard and 5 μl of Biotinylated Molecular Marker were added to parallel wells. 20 μg protein per sample was loaded in each lane. Electrophoresis was performed with voltage set at 125V for about 1˜1.5 hours. Gel transfer was executed at 25V for 2 hours. The membrane was stained in Ponceau S. for 5 minutes and destained with one wash of 5% acetic acid. The membrane was then washed in TBS solution until the staining disappeared. […]

TGase II [1] = assay: TGase II activity in cultured human breast cancer MCF-7 cells; assay type: cell-based; conditions: MCF-7 cells, 10^−6 M, 72 hours, over DMSO
Description: Cells were harvested and Transglutaminase II activity was measured as described below. Nebulizer solution, inhalation procedures, details of animal housing are described below.
Cultured cells were placed in 100 μl scraping buffer [A: 2800 μl (400 μl 0.5M Na-Phosphate, 500 μl 0.01M EDTA, 100 μl 1M DTT, 9 ml PBS total 10 ml)+B:700 μl (10 μl 20 mg/ml PMSF 790 μl PBS total 800 μl)] for each dish. Cells were broken by a sonicator and kept in ice until used. TGase II assay was conducted as described below and previously {8217}.
(§4) Enzyme assay mixtures were prepared by adding 80 μl of SUBSTRATE mixture (322.8 μl H2O, 120 μl 0.5M NaBorate, 60 μl 0.01M EDTA, 60 μl 0.1M CaCl2, 6 μl 1M DTT, 240 μl dimethyl casein, 30 μl Triton X-100, 1.21 μl [^3H]-Putrescine, 120 μl Putrescine) to 20 μl sample, 20 μl scraping buffer for blank control, 20 μl (18 μl scraping buffer+2 μl TGase II) for positive control. Samples were mixed in 15 ml tubes, the tubes were shaken before putting them into a 28° C. water bath for 30 minutes. Reactions were slowed down in an ice bath. 80 μl of the incubation mixture was adsorbed onto paper disks. These were immediately dropped into cold 10% TCA (0.1% Putrescine) and washed with agitation for 7 minutes, followed by 2 additional washes with 5% TCA (0.05% putrescine) for 5-7 minutes, and once more with cold (−20° C.) 95% ethanol for 5 minutes. Paper disks were dried and placed into 5 ml Aquasol, and counted in a Liquid Scintillation Counter. Protein concentration determination was conducted by the Bradford method.

TGase II [2] = assay: TGase II assay of rat liver tissue after inhaled 13-cis RA (experiment B); assay type: in vivo; conditions: for TGase II assay, rat liver: 14 days
Description: (§5) The experimental groups were as follows (Table 1): 1. Vehicle control: rats (3) inhaled vehicle for 240 minutes; 2.
For liver tissue, a piece of approximately 100-400 mg was used. Tissue was diced in small pieces and homogenized in approximately 2 volumes of scraping buffer for 2-3 minutes at 4° C. Samples were centrifuged at 14,000 xg for 30 minutes at 4° C. The supernatant was removed and kept in ice until used.
as §4

RAR β = assay: Western blot of rat lung, inhaled 13-cis RA (experiment A), RAR β; assay type: in vivo; conditions: for upregulation of lung tissue RAR (second named, β): daily deposited dose 6.4 mg/kg/day
Description: as §1, §2, §3

RAR γ [3] = assay: Western blot of rat lung, inhaled 13-cis RA (experiment A), RAR γ; assay type: in vivo; conditions: for upregulation of lung tissue RAR (third named, γ): daily deposited dose 6.4 mg/kg/day
Description: as §1, §2, §3

[4] = doses used in the MD Anderson study, based on pharmacokinetic data; cited from earlier work
A/J mouse = conditions: cited from earlier work; for Efficacy (Carcinogen): 20 weeks, urethane
liver RARs = assay: Western blot of rat liver RARs after inhaled 13-cis RA; assay type: in vivo; conditions: not shown
Description: as §1, §5
as §2, with “Samples were rocked vigorously in a bucket of ice on an orbital shaker for 30 minutes. Samples were centrifuged at 14,000×g for 5 minutes at 4° C.” left out

RAR γ [5] = assay: RAR induction in lungs of A/J mice exposed to isotretinoin aerosol, RAR γ; assay type: in vivo, mouse; conditions: inhaled mid dose, urethane-treated A/J mice
Description: Antibodies: Polyclonal antibodies to RARα, β and γ (Santa Cruz Biotechnology Inc., San Francisco, Calif.) were used with a BM Chemiluminescence Western Blotting Kit (Mouse/Rabbit) (Boehringer Mannheim Corporation, Indianapolis).
Experimental Design: Five lungs each from the urethane-treated vehicle, low dose, and mid dose animals were snap frozen in liquid nitrogen and stored at −70° C. for determination of RARs α, β and γ by Western Blot Analysis. […] The lungs were homogenized and the RARs were determined by standard Western Blotting (21, 22).
Samples: Lung tissue was collected, frozen on dry ice and kept at −70° C. until used. A 500 mg portion was diced in small pieces and homogenized in 300 μl of cold PBS using a hand held homogenizer for 2-3 min. Samples were centrifuged at 500 rpm for 5 min or until the supernatant was clear. The pellet was suspended in 400 μl of cold Buffer A [2 μl 0.5 M EDTA, 10 μl mM EGTA, 50 μl 100 mM PMSF, 10 μl 1M DTT, 10 ml (10 mM HEPES pH 7.9+10 mM KCl)], and left at ice temperature for 15 min. A 25 μl volume of 10% solution of NP−40 was added and the samples were mixed in a vortex vigorously for 10 sec. Samples were centrifuged at 14,000 rpm for 1 min at 4° C. and the pellet was treated once more in this fashion. […]

[6] = daily deposited dose 1.9 mg/kg/day, day 28

CC1=C(/C=C/C(C)=C/C=C/C(C)=C\C(=O)O)C(C)(C)CCC1 [13-cis RA, 13-cis-Retinoic Acid]
induction of lung RAR (first named, α) (RAR α; [6]): 4.7 fold
upregulation of lung tissue RAR (first named, α) (RAR α; day 1): 3.4 fold
upregulation of lung tissue RAR (first named, α) (RAR α; day 17): 4.2 fold
stimulating TGase II activity (TGase II [1]): 6.1 Fold
TGase II assay, rat liver (TGase II [2]; High dose): 19719 DPM/μg protein
TGase II assay, rat liver (TGase II [2]; High dose: 1872 μg/kg total deposited): 0.271+/−0.015 picomoles/μg protein/30 min and 0.271 ± 0.015 picomoles/μg protein/30 min
TGase II assay, rat liver (TGase II [2]; Low dose, vehicle 20426): 22705 DPM/μg protein
TGase II assay, rat liver (TGase II [2]; Low dose: 39 μg/kg total deposited, vehicle 0.260): 0.289+/−0.007 picomoles/μg protein/30 min and 0.289 ± 0.007 picomoles/μg protein/30 min
TGase II assay, rat liver (TGase II [2]; Low-Middle dose): 21448 DPM/μg protein
TGase II assay, rat liver (TGase II [2]; Low-Middle dose: 117 μg/kg total deposited): 0.273+/−0.018 picomoles/μg protein/30 min and 0.273 ± 0.018 picomoles/μg protein/30 min
TGase II assay, rat liver (TGase II [2]; Middle dose): 24590 DPM/μg protein
TGase II assay, rat liver (TGase II [2]; Middle dose: 351 μg/kg total deposited): 0.313+/−0.025 picomoles/μg protein/30 min and 0.313 ± 0.025 picomoles/μg protein/30 min
TGase II assay, rat liver (TGase II [2]; Middle-High dose): 20348 DPM/μg protein
TGase II assay, rat liver (TGase II [2]; Middle-High dose: 936 μg/kg total deposited): 0.269+/−0.015 picomoles/μg protein/30 min and 0.269 ± 0.015 picomoles/μg protein/30 min
effect of inhaled 13-cis RA on liver TGase II activity (TGase II [2]; rat, up to 5.93 mg/kg of inhaled dose): without significant effect; also recorded: fails to significantly alter; also recorded: no significant effect
induction of lung RAR (second named, β) (RAR β; [6]): 8.0 fold
upregulation of lung tissue RAR (second named, β) (RAR β; day 1): 7.2 fold
upregulation of lung tissue RAR (second named, β) (RAR β; day 17): 10.0 fold
induction of lung RAR (third named, γ) (RAR γ [3]; [6]): 8.1 fold
upregulation of lung tissue RAR (third named, γ) (RAR γ [3]; day 1): 9.7 fold
upregulation of lung tissue RAR (third named, γ) (RAR γ [3]; day 17): 12.9 fold
steady-state blood levels [4]: 100 to 200 ng/mL
Efficacy (Carcinogen) (A/J mouse; 200 mg/kg weekly ingested (po)): No (urethane)
Efficacy (Carcinogen) (A/J mouse; 400 mg/kg weekly ingested (po)): No (urethane)
prevention of urethane-induced lung cancer (A/J mouse; orally administered, over 300 mg/kg weekly, A/J mouse model): failed to prevent
effect of inhaled 13-cis RA on liver RARs (liver RARs; 5 to 240 minutes daily for 14 days): not responsive
effect of inhaled 13-cis RA on liver RARs (liver RARs; same rats as FIG. 2A (experiment A)): failed to show any increase
upregulation of lung tissue RAR γ over solvent (vehicle) (RAR γ [5]): 3.7 fold
